Results reported in patent publication US5874078A, “Reagent composition of glutamate dehydrogenase from pseudomonas” (Toyo Boseki Kabushiki Kaisha, priority 1994, dated 1999).
Like-named read-outs stand apart in the source and are kept apart here. Values belong to the molecule of their own block, whether it stands above or below them.

Legend:
[1] = system: glutamate dehydrogenase from Pseudomonas sp. 433-3 (FERM P-14092); experiment: Km values of glutamate dehydrogenase; format: biochemical
Experimental: The above reaction mixture solution (2.9 ml) is taken in a cuvette and subjected to a preliminary heating at 30° C. for about five minutes. Then the reaction is initiated by adding 0.1 ml of an enzyme solution thereto, decrease in absorbance of 340 nm in a spectrophotometer controlled at 30° C. is recorded for 3-4 minutes and, out of its linear portion, the decrease in the absorbance per minute is determined. A blank test is carried out according to the same operations as above except that 0.1M Tris-HCl buffer (pH: 8.3) is added instead of the enzyme solution. […]
The above reaction mixture solution (2.9 ml) was taken in a cuvette and subjected to a preliminary heating at 30° C. for about five minutes. Then the reaction was initiated by adding 0.1 ml of an enzyme solution thereto, […] at 30° C. was recorded for 3-4 minutes and, out of its linear portion, the decrease in the absorbance per minute was determined. A blank test was carried out according to the same operations as above except that 0.1M Tris-HCl buffer (pH: 9.0) was added instead of the enzyme solution.

[2] = target: NAD+-dependent glutamate dehydrogenase (EC 1.4.1.2) from Peptococcus aerogene (Peptoniphilus asaccharolyticus, UniProt P28997); settings: read-out: Km Value to NH3; Table 3; Can. J. Microbiol. 18, 881 (1972); cited from earlier work
[3] = system: NAD+-dependent glutamate dehydrogenase (EC 1.4.1.2) from Clostridium sp. SB4; settings: read-out: Km Value to NH3; Table 3; The Enzymes, 3rd Ed. 11, 293 (1975); cited from earlier work
[4] = system: NAD+-dependent glutamate dehydrogenase (EC 1.4.1.2) from Synechocystis sp.; settings: read-out: Km Value to NH3; Table 3; FEBS Lett. 285, 35 (1991); cited from earlier work
[5] = target: T1, Bovine Liver CLDH (glutamate dehydrogenase derived from bovine liver) (Bos taurus, UniProt P00366); experiment: Activation by ADP (reductive amination activity); format: biochemical; settings: 2.5 mM ADP, pH 8.3, 30° C., read-out: activity with 2.5 mM ADP (without ADP = 100%)
T1 construct: Bovine Liver CLDH; from tissue; host or cells: bovine liver
Experimental: (§1) A method of measuring an activity of the glutamate dehydrogenase of the present invention by means of a reductive amination will be as follows.
(§2) The above reaction mixture solution (2.9 ml) is taken in a cuvette and subjected to a preliminary heating at 30° C. for about five minutes. Then the reaction is initiated by adding 0.1 ml of an enzyme solution thereto, decrease in absorbance of 340 nm in a spectrophotometer controlled at 30° C. is recorded for 3-4 minutes and, out of its linear portion, the decrease in the absorbance per minute is determined. A blank test is carried out according to the same operations as above except that 0.1M Tris-HCl buffer (pH: 8.3) is added instead of the enzyme solution. The way of expression of an activity of the glutamate dehydrogenase is in such a manner that the amount of the enzyme by which 1 micromole of NADH is oxidized per minute under the above-mentioned conditions is defined as one unit (U).
(§3) ADP was added to the reagent for measuring the activity of glutamate dehydrogenase of the present invention (a reductive amination) to make it 2.5 mM and the resulting activity was compared with that where nothing was added.

[6] = system: glutamate dehydrogenase from Pseudomonas sp. 433-3 (FERM P-14092); experiment: Activation by ADP (reductive amination activity); format: biochemical; settings: pH 8.3, 30° C.
Experimental: as §1, §2, §3

Chain of NAD+-dependent glutamate dehydrogenase (EC 1.4.1.2) from Peptococcus aerogene (P28997 whole entry): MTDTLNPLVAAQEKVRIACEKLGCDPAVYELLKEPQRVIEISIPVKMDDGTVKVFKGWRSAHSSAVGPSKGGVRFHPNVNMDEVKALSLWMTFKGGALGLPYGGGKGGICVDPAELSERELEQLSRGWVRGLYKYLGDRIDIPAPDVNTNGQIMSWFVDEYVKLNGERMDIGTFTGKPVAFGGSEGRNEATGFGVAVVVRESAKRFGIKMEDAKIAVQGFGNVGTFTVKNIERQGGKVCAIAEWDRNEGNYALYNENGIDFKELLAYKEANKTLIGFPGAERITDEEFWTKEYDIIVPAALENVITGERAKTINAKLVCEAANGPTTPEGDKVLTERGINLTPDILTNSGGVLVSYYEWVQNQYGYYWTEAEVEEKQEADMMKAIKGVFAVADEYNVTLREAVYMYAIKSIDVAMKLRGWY
T1 sequence (P00366 58-558): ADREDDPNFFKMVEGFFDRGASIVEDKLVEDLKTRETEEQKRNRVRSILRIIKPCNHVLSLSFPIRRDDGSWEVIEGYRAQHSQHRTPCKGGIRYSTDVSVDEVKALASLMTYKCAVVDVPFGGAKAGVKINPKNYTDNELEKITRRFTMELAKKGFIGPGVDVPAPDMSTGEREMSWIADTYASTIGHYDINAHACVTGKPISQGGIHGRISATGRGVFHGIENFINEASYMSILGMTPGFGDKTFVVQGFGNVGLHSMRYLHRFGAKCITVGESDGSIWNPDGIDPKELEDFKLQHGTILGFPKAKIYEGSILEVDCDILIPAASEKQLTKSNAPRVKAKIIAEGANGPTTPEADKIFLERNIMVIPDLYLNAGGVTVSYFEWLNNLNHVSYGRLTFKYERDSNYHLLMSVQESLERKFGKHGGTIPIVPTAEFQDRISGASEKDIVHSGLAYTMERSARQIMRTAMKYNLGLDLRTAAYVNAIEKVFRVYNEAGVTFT

Compound: NC(=O)C1=CN([C@@H]2O[C@H](COP(=O)(O)OP(=O)(O)OC[C@H]3O[C@@H](n4cnc5c(N)ncnc54)[C@H](O)[C@@H]3O)[C@@H](O)[C@H]2O)C=CC1 [NADH]
Km ([1]; read-out: Km value to NADH): 0.19 mM

Compound: N [ammonia]
Km ([1]; Table 3, This Invention, read-out: Km Value to NH3): 8.5 mM
Km ([1]; read-out: Km value to ammonia): 8.5 mM
Km [2]: 18.4 mM
Km [3]: 0.32 mM
Km [4]: 4.5 mM

Now from value to molecule:

activity at 2500 µM [5]: 145%
activity with 2.5 mM ADP (without ADP = 100%) [6]: 100%
Compound: Nc1ncnc2c1ncn2[C@@H]1O[C@H](COP(=O)(O)OP(=O)(O)O)[C@@H](O)[C@H]1O [ADP]

Km ([1]; read-out: Km value to L-glutamic acid): 17 mM
Compound: N[C@@H](CCC(=O)O)C(=O)O [L-glutamic acid]

Km ([1]; read-out: Km value to NAD^+): 0.1 mM
Compound: NC(=O)c1ccc[n+]([C@@H]2O[C@H](COP(=O)(O)OP(=O)([O-])OC[C@H]3O[C@@H](n4cnc5c(N)ncnc54)[C@H](O)[C@@H]3O)[C@@H](O)[C@H]2O)c1 [NAD^+]
